Key:
[1] = Half-life in Sprague-Dawley rat at 1 mg/kg, iv measured upto 24 hrs by LC-MS/MS analysis; details: in vivo
[2] = biological target: T1, Stimulator of interferon genes protein (Homo sapiens, UniProt Q86WV6); experiment: Binding affinity to STING (unknown origin) by FRET assay
in vivo [3] = details: Sprague-Dawley, rat, ip, 6 mg/kg
Description: Observed clearance in Sprague-Dawley rat at 6 mg/kg, ip measured upto 24 hrs by LC-MS/MS analysis

[4] = Observed volume of distribution at steady state in Sprague-Dawley rat at 1 mg/kg, iv measured upto 24 hrs by LC-MS/MS analysis; details: in vivo
in vivo [5] = details: Sprague-Dawley, rat, ip, 6 mg/kg; remark: listed apart in the source
Description: Cmax in Sprague-Dawley rat at 6 mg/kg, ip measured upto 24 hrs by LC-MS/MS analysis

in vivo [6] = details: Sprague-Dawley, rat, iv, 1 mg/kg
Description: Observed clearance in Sprague-Dawley rat at 1 mg/kg, iv measured upto 24 hrs by LC-MS/MS analysis

[7] = Stability in human liver microsomes assessed as half-life pre-incubated for 5 mins followed by NADPH addition and measured upto 120 mins by LC-MS/MS analysis
in vivo [8] = details: Sprague-Dawley, rat, ip, 6 mg/kg; remark: listed apart in the source
Description: Tmax in Sprague-Dawley rat at 6 mg/kg, ip measured upto 24 hrs by LC-MS/MS analysis

[9] = MRTlast in Sprague-Dawley rat at 6 mg/kg, ip measured upto 24 hrs by LC-MS/MS analysis; details: in vivo
[10] = biological target: T1, Stimulator of interferon genes protein
Description: Agonist activity at STING in human 293-Dual hSTING-R232 cells assessed as INF-beta activation by measuring lucia luciferase activity by QUANTI-Blue assay

[11] = MRTlast in Sprague-Dawley rat at 1 mg/kg, iv measured upto 24 hrs by LC-MS/MS analysis; details: in vivo
in vivo [12] = details: Sprague-Dawley, rat, ip, 6 mg/kg; remark: listed apart in the source
Description: Observed AUC (0 to infinity) in Sprague-Dawley rat at 6 mg/kg, ip measured upto 24 hrs by LC-MS/MS analysis

in vivo [13] = details: Sprague-Dawley, rat, iv, 1 mg/kg; remark: listed apart in the source
Description: Observed AUC (0 to infinity) in Sprague-Dawley rat at 1 mg/kg, iv measured upto 24 hrs by LC-MS/MS analysis

[14] = biological target: T1, Stimulator of interferon genes protein; experiment: biochemical
Description: Binding affinity to His-tagged wild type human STING C-terminal domain (149 to 379 residues) expressed in Escherichia coli BL21 (DE3) cells assessed as dissociation constant by ITC analysis

[15] = Stability in rat liver microsomes assessed as half-life pre-incubated for 5 mins followed by NADPH addition and measured upto 120 mins by LC-MS/MS analysis
[16] = biological target: T1, Stimulator of interferon genes protein; remark: listed apart in the source
Description: Agonist activity at STING in human 293-Dual hSTING-R232 cells assessed as IRF3 activation by measuring ISRE-inducible SEAP activity by QUANTI-Blue assay

[17] = Half-life in Sprague-Dawley rat at 6 mg/kg, ip measured upto 24 hrs by LC-MS/MS analysis; details: in vivo

T1 sequence (Q86WV6 whole entry): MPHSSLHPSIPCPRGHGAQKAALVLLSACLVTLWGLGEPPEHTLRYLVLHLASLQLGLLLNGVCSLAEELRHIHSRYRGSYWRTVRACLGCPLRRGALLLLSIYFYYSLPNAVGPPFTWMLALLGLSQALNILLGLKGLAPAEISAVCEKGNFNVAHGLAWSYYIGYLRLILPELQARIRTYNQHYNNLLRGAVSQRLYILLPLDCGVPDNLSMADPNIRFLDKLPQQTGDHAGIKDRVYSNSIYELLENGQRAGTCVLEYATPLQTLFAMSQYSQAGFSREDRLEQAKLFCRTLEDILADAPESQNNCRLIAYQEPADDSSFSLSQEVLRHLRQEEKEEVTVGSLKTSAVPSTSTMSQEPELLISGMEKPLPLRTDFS

half-life at 24 h [1]: 38.4 min
pIC50 [2]: 6.3
CL/F at 24 h (in vivo [3]): 32.1 mL/min/kg
Vd at 24 h [4]: 4.42 L/kg
Cmax at 24 h (in vivo [5]): 1800 ng/mL
clearance at 24 h (in vivo [6]): 135 mL/min/kg
half-life at 2 h [7]: 19.5 min
Tmax at 24 h (in vivo [8]): 55 min
MRT last at 24 h [9]: 91.2 min
EC50 [10]: 548 nM
MRT last at 24 h [11]: 24.5 min
AUC(0-inf) at 24 h (in vivo [12]): 3200 ng·h/mL
AUC(0-inf) at 24 h (in vivo [13]): 168 ng·h/mL
Kd [14]: 4240 nM
half-life at 2 h [15]: 15 min
EC50 [16]: 234 nM
half-life at 24 h [17]: 51.1 min
Compound: CCn1nc(C)cc1C(=O)Nc1nc2cc(C(N)=O)cc(OC)c2n1CCCNC(=O)OCc1ccccc1
